Consider one compound from PMC5630390, “7-ketocholesterol and 27-hydroxycholesterol decreased doxorubicin sensitivity in breast cancer cells: estrogenic activity and mTOR pathway” (Oncotarget, 2017).

The test concerns the target T1, ERα (Homo sapiens, UniProt P03372).
T1 construct: gene ESR1; recombinant human ERα expressed in yeast with a LacZ reporter construct
T1 sequence (P03372 1-595): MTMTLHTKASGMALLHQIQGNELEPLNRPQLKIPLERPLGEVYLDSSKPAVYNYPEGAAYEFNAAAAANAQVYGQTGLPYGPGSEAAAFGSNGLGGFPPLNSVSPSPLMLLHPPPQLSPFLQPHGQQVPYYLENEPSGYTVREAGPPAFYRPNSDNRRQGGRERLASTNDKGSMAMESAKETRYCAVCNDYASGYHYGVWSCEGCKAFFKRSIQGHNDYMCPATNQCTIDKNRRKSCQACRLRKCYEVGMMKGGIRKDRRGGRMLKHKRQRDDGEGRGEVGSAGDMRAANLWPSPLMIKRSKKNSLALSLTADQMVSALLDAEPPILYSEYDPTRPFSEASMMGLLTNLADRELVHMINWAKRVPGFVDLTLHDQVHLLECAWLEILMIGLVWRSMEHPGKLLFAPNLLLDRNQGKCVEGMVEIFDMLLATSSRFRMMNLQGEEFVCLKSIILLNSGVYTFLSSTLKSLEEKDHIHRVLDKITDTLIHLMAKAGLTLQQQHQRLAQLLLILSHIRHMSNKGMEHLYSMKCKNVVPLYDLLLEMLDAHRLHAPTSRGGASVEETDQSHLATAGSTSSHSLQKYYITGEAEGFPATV
As to the kind of experiment: yeast ER reporter (YES) assay, agonist mode, […] h; weak, […] stimulation at […]. Type of test: cell-based.

On to `CC(C)CCC[C@@H](C)[C@H]1CC[C@H]2[C@@H]3C(=O)C=C4C[C@@H](O)CC[C@]4(C)[C@H]3CC[C@]12C` [7-KC, 7-ketocholesterol], for which the activation at 50 µM came to 14%.
